Results: ChEMBL document CHEMBL4507281, “Data for DCP probe BI-4394” (2021)

How the values were obtained:
[1] = biological target: Serine/threonine-protein kinase NIM1 (Homo sapiens) (UniProt Q8IY84); settings: Compound concentration 100.0 nM
[2] = biological target: Proto-oncogene tyrosine-protein kinase receptor Ret (Homo sapiens) (UniProt P07949); settings: Compound concentration 100.0 nM
[3] = tested on: Phosphatidylinositol 4,5-bisphosphate 3-kinase catalytic subunit alpha isoform (Homo sapiens), P42336 [M1043I]; settings: Compound concentration 100.0 nM
[4] = tested on: Epidermal growth factor receptor (Homo sapiens), P00533 [UNDEFINED MUTATION]; settings: Compound concentration 100.0 nM
[5] = biological target: Ribosomal protein S6 kinase alpha-6 (Homo sapiens) (UniProt Q9UK32); settings: Compound concentration 100.0 nM
[6] = biological target: Misshapen-like kinase 1 (Homo sapiens) (UniProt Q8N4C8); settings: Compound concentration 100.0 nM
[7] = biological target: Activin receptor type-1-like (Homo sapiens) (UniProt P37023); settings: Compound concentration 100.0 nM
[8] = biological target: Mitogen-activated protein kinase 4 (Homo sapiens) (UniProt P31152); settings: Compound concentration 100.0 nM
[9] = biological target: T1, Tyrosine-protein kinase ZAP-70 (Homo sapiens) (UniProt P43403); settings: Compound concentration 100.0 nM
T1 sequence (whole entry): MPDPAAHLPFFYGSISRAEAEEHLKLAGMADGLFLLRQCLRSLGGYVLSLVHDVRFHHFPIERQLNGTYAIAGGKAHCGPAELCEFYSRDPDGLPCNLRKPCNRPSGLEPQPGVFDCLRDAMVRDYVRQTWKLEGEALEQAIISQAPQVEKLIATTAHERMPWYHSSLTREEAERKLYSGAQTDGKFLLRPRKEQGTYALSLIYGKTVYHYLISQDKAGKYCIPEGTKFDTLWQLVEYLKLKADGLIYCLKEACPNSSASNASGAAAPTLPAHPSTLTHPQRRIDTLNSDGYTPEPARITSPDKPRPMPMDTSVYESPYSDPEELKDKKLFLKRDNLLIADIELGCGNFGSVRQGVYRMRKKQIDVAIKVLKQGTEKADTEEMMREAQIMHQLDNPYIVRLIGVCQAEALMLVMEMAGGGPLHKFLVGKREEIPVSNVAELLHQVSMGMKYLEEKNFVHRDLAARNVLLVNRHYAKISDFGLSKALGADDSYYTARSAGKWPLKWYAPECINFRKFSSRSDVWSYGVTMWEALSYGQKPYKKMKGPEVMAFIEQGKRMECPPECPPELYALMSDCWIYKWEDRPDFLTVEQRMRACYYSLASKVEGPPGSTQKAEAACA

[10] = biological target: Alpha-2A adrenergic receptor (Homo sapiens) (UniProt P08913); settings: Compound concentration 10.0 uM
[11] = tested on: Tyrosine-protein kinase ABL1 (Homo sapiens), P00519 [Q252H]; settings: Compound concentration 100.0 nM
[12] = biological target: Casein kinase II subunit alpha (Homo sapiens) (UniProt P68400); settings: Compound concentration 10.0 uM
[13] = biological target: Casein kinase I isoform gamma-3 (Homo sapiens) (UniProt Q9Y6M4); settings: Compound concentration 100.0 nM
[14] = biological target: T2, Serine/threonine-protein kinase Chk1 (Homo sapiens) (UniProt O14757); settings: Compound concentration 10.0 uM
T2 sequence (whole entry): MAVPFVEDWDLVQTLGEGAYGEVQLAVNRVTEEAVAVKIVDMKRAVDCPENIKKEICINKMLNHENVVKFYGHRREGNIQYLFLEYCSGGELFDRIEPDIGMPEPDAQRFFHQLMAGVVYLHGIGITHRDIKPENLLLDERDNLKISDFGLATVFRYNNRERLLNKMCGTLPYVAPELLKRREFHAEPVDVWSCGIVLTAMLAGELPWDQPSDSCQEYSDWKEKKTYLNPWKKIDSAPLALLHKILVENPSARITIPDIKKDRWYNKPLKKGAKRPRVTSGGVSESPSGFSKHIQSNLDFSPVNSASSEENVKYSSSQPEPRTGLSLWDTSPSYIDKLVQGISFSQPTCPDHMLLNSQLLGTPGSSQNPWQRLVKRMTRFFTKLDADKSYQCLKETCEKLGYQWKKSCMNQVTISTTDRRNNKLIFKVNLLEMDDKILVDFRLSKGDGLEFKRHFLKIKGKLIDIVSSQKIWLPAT

[15] = biological target: Serine/threonine-protein kinase Sgk1 (Homo sapiens) (UniProt O00141); settings: Compound concentration 100.0 nM
[16] = biological target: Homeodomain-interacting protein kinase 1 (Homo sapiens) (UniProt Q86Z02); settings: Compound concentration 100.0 nM
[17] = biological target: Tyrosine-protein kinase ABL1 (Homo sapiens) (UniProt P00519); settings: Compound concentration 10.0 uM
[18] = biological target: Inhibitor of nuclear factor kappa-B kinase subunit alpha (Homo sapiens) (UniProt O15111); settings: Compound concentration 100.0 nM
[19] = biological target: Calcium/calmodulin-dependent protein kinase type II subunit alpha (Homo sapiens) (UniProt Q9UQM7); settings: Compound concentration 100.0 nM
[20] = biological target: Mitogen-activated protein kinase 14 (Homo sapiens) (UniProt Q16539); settings: Compound concentration 10.0 uM
[21] = biological target: T3, Interleukin-1 receptor-associated kinase 4 (Homo sapiens) (UniProt Q9NWZ3); settings: Compound concentration 10.0 uM
T3 sequence (whole entry): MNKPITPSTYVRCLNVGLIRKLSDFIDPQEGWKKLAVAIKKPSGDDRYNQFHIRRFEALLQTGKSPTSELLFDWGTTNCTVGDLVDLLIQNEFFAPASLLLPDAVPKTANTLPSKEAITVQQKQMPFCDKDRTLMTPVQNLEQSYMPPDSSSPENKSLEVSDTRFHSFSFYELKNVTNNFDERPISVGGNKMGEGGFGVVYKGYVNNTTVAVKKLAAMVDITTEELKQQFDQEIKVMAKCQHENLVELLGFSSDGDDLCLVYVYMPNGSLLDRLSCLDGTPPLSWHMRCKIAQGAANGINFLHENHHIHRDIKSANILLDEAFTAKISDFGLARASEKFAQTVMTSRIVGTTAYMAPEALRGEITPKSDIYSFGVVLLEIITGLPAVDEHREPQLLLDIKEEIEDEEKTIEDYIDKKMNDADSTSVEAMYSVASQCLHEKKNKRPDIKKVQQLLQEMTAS

[22] = tested on: Tyrosine-protein kinase ABL1 (Homo sapiens), P00519 [F317I]; settings: Compound concentration 100.0 nM
[23] = biological target: T3, Interleukin-1 receptor-associated kinase 4 (Homo sapiens); settings: Compound concentration 100.0 nM
[24] = biological target: Muscarinic acetylcholine receptor M2 (Homo sapiens) (UniProt P08172); settings: Compound concentration 10.0 uM

Homeodomain-interacting protein kinase 1 (Homo sapiens), sequence (Q86Z02 whole entry, looked up): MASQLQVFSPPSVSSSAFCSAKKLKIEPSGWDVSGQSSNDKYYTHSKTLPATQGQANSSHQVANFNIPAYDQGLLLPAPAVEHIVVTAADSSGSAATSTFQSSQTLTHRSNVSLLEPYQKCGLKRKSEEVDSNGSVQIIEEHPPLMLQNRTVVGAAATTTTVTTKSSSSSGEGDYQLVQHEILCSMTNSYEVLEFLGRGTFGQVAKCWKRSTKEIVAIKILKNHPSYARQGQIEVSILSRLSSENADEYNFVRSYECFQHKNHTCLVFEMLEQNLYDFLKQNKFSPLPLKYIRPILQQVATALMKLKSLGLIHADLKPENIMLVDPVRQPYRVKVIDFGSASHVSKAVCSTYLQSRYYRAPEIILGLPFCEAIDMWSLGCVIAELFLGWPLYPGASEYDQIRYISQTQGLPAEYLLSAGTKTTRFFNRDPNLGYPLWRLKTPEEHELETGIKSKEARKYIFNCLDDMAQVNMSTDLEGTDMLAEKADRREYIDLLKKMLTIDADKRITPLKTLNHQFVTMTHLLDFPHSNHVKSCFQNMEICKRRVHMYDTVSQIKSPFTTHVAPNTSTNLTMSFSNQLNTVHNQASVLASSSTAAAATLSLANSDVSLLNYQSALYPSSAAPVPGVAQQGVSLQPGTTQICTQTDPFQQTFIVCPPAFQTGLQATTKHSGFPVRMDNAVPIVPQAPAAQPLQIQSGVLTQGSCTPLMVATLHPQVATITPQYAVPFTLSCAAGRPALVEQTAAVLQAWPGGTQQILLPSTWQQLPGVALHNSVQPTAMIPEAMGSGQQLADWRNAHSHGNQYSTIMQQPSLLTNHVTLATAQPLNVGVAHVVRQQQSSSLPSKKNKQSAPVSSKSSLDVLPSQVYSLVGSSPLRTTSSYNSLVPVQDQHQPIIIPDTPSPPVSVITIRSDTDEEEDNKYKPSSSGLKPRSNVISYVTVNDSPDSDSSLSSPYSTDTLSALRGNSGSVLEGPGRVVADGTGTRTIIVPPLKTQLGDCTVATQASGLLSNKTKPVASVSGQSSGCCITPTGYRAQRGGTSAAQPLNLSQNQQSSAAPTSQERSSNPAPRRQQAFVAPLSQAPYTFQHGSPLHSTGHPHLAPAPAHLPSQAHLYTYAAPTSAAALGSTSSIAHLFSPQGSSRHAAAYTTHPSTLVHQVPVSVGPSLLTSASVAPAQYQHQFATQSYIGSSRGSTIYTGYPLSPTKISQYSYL
Misshapen-like kinase 1 (Homo sapiens), sequence (Q8N4C8 whole entry, looked up): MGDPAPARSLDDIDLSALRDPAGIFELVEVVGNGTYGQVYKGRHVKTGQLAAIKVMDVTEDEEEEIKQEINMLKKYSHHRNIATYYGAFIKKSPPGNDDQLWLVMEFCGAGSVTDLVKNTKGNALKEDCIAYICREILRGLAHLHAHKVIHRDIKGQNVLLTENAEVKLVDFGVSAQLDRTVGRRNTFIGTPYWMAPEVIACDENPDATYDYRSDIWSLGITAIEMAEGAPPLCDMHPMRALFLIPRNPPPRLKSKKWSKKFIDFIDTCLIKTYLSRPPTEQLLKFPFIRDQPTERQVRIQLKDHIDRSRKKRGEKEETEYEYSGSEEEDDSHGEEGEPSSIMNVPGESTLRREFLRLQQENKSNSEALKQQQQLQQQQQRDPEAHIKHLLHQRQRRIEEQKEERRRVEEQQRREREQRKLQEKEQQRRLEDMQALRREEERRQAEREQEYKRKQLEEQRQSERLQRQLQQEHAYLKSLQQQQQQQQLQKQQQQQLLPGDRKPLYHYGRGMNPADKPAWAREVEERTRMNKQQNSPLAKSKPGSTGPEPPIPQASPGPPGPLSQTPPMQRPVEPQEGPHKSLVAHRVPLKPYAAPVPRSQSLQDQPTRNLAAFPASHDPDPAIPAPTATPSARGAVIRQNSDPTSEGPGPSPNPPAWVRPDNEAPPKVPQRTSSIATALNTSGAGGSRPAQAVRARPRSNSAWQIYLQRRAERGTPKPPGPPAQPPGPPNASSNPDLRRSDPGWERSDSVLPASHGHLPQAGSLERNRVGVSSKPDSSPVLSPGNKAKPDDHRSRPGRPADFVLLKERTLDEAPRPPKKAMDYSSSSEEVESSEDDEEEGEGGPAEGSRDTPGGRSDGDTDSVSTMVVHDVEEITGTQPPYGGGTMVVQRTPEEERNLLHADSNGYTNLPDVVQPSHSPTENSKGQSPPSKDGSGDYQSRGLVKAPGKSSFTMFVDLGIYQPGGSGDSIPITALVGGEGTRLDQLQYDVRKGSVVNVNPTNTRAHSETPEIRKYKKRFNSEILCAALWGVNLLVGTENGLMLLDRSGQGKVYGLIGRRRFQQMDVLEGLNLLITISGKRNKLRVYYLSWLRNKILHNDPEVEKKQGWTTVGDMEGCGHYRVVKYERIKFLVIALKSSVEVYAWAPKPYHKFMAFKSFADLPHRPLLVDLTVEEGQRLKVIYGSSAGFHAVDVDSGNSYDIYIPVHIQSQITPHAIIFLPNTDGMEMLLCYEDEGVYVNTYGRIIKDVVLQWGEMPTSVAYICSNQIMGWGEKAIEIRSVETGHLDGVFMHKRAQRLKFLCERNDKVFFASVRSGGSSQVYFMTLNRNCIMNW
Epidermal growth factor receptor (Homo sapiens), P00533 [UNDEFINED MUTATION], sequence (P00533 whole entry, looked up, change not shown): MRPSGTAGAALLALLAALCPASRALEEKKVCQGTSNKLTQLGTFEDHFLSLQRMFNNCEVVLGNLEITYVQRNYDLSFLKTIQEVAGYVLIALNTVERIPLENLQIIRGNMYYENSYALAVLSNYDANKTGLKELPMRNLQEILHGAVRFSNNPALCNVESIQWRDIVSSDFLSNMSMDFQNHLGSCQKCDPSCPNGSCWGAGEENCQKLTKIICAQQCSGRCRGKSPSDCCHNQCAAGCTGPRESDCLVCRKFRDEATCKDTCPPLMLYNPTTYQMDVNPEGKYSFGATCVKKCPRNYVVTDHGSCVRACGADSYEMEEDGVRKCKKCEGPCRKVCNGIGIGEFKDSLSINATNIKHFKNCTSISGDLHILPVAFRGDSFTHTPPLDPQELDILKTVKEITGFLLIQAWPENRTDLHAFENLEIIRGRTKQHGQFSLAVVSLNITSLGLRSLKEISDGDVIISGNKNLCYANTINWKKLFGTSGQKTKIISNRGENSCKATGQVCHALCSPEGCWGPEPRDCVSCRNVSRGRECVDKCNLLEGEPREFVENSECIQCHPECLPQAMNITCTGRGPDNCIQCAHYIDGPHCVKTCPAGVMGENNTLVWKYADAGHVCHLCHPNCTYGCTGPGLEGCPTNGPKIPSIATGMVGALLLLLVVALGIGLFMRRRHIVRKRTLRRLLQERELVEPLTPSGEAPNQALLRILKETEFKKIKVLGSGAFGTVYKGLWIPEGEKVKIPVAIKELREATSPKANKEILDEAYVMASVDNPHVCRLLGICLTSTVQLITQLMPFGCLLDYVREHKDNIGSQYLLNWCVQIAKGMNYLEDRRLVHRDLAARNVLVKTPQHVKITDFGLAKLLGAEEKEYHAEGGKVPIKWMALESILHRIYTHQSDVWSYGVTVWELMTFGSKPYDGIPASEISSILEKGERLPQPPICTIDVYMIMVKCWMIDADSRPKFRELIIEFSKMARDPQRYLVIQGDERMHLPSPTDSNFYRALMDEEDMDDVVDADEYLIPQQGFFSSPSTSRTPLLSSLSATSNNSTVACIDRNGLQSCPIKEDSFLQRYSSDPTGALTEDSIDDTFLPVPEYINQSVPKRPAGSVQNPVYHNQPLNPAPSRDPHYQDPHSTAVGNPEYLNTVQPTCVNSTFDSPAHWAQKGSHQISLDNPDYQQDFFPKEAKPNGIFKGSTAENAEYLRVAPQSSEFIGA
Mitogen-activated protein kinase 4 (Homo sapiens), sequence (P31152 whole entry): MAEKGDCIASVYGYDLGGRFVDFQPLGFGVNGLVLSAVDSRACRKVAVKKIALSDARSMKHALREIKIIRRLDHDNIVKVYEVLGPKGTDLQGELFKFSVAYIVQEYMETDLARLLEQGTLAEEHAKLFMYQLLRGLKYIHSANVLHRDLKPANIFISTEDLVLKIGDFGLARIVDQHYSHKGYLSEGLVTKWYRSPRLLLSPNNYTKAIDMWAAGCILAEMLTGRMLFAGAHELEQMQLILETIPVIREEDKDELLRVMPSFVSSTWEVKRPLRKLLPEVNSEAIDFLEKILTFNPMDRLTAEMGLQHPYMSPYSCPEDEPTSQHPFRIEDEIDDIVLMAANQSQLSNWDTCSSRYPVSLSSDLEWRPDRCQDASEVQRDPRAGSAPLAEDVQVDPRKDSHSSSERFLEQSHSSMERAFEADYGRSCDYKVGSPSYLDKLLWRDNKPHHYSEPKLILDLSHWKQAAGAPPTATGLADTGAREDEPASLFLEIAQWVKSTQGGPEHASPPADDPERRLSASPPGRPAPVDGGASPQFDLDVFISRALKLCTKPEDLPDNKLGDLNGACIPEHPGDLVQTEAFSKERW
Serine/threonine-protein kinase NIM1 (Homo sapiens), sequence (Q8IY84 whole entry): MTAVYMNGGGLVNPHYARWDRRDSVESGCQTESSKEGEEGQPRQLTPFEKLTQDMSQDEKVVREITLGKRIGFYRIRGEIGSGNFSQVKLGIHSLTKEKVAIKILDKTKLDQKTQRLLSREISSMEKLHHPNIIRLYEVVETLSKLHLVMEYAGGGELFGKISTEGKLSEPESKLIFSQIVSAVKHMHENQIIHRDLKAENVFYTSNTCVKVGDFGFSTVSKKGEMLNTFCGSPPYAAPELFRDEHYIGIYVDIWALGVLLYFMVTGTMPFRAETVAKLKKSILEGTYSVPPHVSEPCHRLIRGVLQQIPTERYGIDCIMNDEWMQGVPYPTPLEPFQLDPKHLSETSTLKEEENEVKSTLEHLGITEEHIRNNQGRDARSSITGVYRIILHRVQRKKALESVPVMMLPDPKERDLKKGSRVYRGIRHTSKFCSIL

Structure (SMILES)	residual activity [1] [%]	residual activity [2] [%]	residual activity [3] [%]	residual activity [4] [%]	residual activity [5] [%]	residual activity [6] [%]	residual activity [7] [%]	residual activity [8] [%]	residual activity [9] [%]	residual activity [11] [%]	residual activity [13] [%]	residual activity [15] [%]	residual activity [16] [%]	residual activity [18] [%]	residual activity [19] [%]	residual activity [22] [%]	residual activity [23] [%]	other results
CCOC(=O)c1cc2cc(-c3cc(C(=O)NCc4ccc(C(=O)O)cc4)nn3C)ccc2[nH]1 [BI 4394]	79	87	100	100	95	94	68	86	98	92	100	100	91	100	76	80	91	inhibition [10]: 12.3%; residual activity [12]: 89%; residual activity [14]: 94%; residual activity [17]: 48%; residual activity [20]: 6%; residual activity [21]: 121%
Cn1nc(C(=O)NCc2ccc(C(=O)O)cc2)cc1-c1ccc2[nH]ccc2c1 [BI 4395]	78	83	85	100	86	95	97	89	82	71	94	88	85	90	79	68	71	inhibition [24]: -8.35%
